Experimental data published in patent US8124137B2, “Composition for prevention and/or treatment of tumors containing acacia bark derivative” (Mimozax Co., Ltd., priority 2006, dated 2012).

System: mouse tumor MM46 breast cancer cells
Experiment: Tumor growth inhibition test in mice
Assay type: in vivo
Settings: Positive Control group: 6.25 mg/kg intraperitoneally on days 7, 11 and 14
Experimental: The required weighed amounts of Acacia Hot Water Extract No. 1 described in Production Example 2 were dispersed in water at 60° C. to prepare test drinks 1, 2 and 3 containing Acacia Hot Water Extract No. 1 at 7.8 mg/mL, 15.6 mg/mL and 31.3 mg/mL, respectively.
The required weighed amounts of Acacia Hot Water Extract No. 1 described in Production Example 2 were mixed with commercially available feed to prepare test feeds 2 and 3 containing Acacia Hot Water Extract No. 1 at 15.6 mg/g and 31.3 mg/g, respectively.
Female C3H/HeN mice were assigned to a Control 1 group, Test 1 group, Test 2 group, Test 3 group and Positive Control group as shown in the table below.
First, 2×10^6 mouse tumor MM46 breast cancer cells were transplanted subcutaneously into the inguinal region of the mice grouped as indicated above according to the method described in Abe, S. et al., Gann 73, 91-96 (1982) and Ohasi, K. et al., Yakugaku Zasshi 113, 396-399 (1993).
Tap water was given to the Control 1 group while Test Drinks 1 to 3 were given to the Test 1 to Test 3 groups, respectively, as drinking water, starting on the day of tumor transplantation. In addition, tap water was given to the Positive Control group, and this group was also intraperitoneally administered 6.25 mg/kg of lentinan on days 7, 11 and 14 following tumor transplantation.
Consequently, Test Drink 2 and Test Drink 3 were replaced with tap water on day 7 of tumor transplantation. In addition, five mice each of the Test 2 group were reassigned to a Control 2 group and a Test 2a group, while five mice each of the Test 3 group were reassigned to a Control 3 group and a Test 3a group. Animals of the Control 2 group and Control 3 group were continued to be fed the control feed. The Test 2a group and Test 3a group were fed Test Feed 2 and Test Feed 3, respectively, instead of the control feed.
Growth of the tumor transplanted subcutaneously into the inguinal regions of the mice was observed by palpation for 4 weeks every 3 or 4 days, and tumor diameter was also measured. In addition, survival times (days) and body weights were also measured. The tumors were excised and their wet weights were measured following completion of the test.
Furthermore, the Student's t-test was used for statistical testing.

Q: How did the Average tumor diameter (day 14 after transplantation) turn out when lentinan was run?
A: 7.4 ± 6.58 mm

Q: And the “reduction rate versus Control 1 group (average tumor diameter)” value (day 14 after transplantation)?
A: 43.5%

Q: And the Average tumor diameter (day 28 after transplantation)?
A: 14.0 ± 6.12 mm

Q: And the “reduction rate versus Control 1 group (average tumor diameter)” value (day 28 after transplantation)?
A: 41.2%
